Earlier results, collected in patent US7229642B2, “Amino acid modulated extended release dosage form” (Scolr, Inc., priority 1999, dated 2007).
Like-named read-outs stand apart in the source and are kept apart here.

Settings: for HYDROPHOBIC VALUE: hydropathy scale of Pliska et al., J. Chromatog. 216, 79, 1981, glycine = 0; for CHARACTERIZATION (hydropathy): hydropathy characteristic in words

HYDROPHOBIC VALUE | CHARACTERIZATION (hydropathy) | CHARACTERIZATION (hydropathy) (listed as iso-leucine) | CHARACTERIZATION (hydropathy) (listed as glycine) | Compound
0.84 | – | – | – | O=C(O)[C@@H]1CCCN1 [Proline]
1.83 | Strongly Hydrophobic | strongly hydrophobic | – | CC[C@H](C)[C@H](N)C(=O)O [Isoleucine]
0 | Neutral, Balanced | – | neutral | NCC(=O)O [Glycine]
−0.99 | – | – | – | NC(=O)C[C@H](N)C(=O)O [Asparagine]
1.10 | Moderately Hydrophobic | – | – | CSCC[C@H](N)C(=O)O [Methionine]
0.35 | – | – | – | C[C@H](N)C(=O)O [Alanine]
0.76 | – | – | – | N[C@@H](CS)C(=O)O [Cysteine]
−0.63 | – | – | – | N[C@@H](CO)C(=O)O [Serine]
1.69 | – | – | – | N[C@@H](Cc1ccccc1)C(=O)O [Phenylalanine]
1.32 | – | – | – | CC(C)[C@H](N)C(=O)O [Valine]
0.39 | Weakly Hydrophobic | – | – | N[C@@H](Cc1ccc(O)cc1)C(=O)O [Tyrosine]
−2.15 | strongly hydrophilic | – | – | N[C@@H](CC(=O)O)C(=O)O [Aspartic acid]
−0.27 | Weakly Hydrophilic | – | – | C[C@@H](O)[C@H](N)C(=O)O [Threonine]
−0.65 | – | – | – | N[C@@H](Cc1c[nH]cn1)C(=O)O [Histidine]

Compound | HYDROPHOBIC VALUE | CHARACTERIZATION (hydropathy) | CHARACTERIZATION (hydropathy) (listed as iso-leucine) | CHARACTERIZATION (hydropathy) (listed as glycine)
NCCCC[C@H](N)C(=O)O [Lysine] | −1.54 | – | – | –
N[C@@H](Cc1c[nH]c2ccccc12)C(=O)O [Tryptophan] | 1.35 | – | – | –
